In US20260285850A1, “SUBSTITUTED OXAZOLIDINONES AND IMIDAZOLINONES AS HERBICIDES” (FMC CORPORATION, priority 2023, published 2026):

Experiments:
Type in all cases: in vivo
[1] = system: barnyardgrass (Echinochloa crusgalli); assay: Test B flooded paddy test, visual plant response rating 0-100; conditions: 250 g ai/ha, Flood, applied to paddy water, evaluated after 13 days
Outline: (§1)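 Paddy-water application: test compounds went directly into water flooded 3 cm above the soil surface, with plants at 2 leaves. After a 13-day greenhouse period, responses were judged by eye relative to controls; a dash marks an untested entry.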

[2] = system: ducksalad (Heteranthera limosa); assay: as above; conditions: 250 g ai/ha, Flood, applied to paddy water, evaluated after 13 days
Outline: as §1

[3] = system: sedge, umbrella (small-flower umbrella sedge, Cyperus difformis); assay: as above; conditions: 250 g ai/ha, Flood, applied to paddy water, evaluated after 13 days
Outline: as §1

rice (Oryza sativa) = assay: as above; conditions: 250 g ai/ha, Flood, applied to paddy water, evaluated after 13 days
Outline: as §1

[4] = system: ryegrass, Italian (italian ryegrass, Lolium multiflorum); assay: Test A postemergence application, visual injury rating 0-100
Outline: (§2)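 Loam-sand pots got test material in surfactant-containing solvent, either as a directed soil spray before emergence or on plants at the one- to two-leaf stage. Visual injury (0-100) was read after ten greenhouse days.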

[5] = system: palmer (palmer amaranth, palmer pigweed, Amaranthus palmeri); assay: as above
Outline: as §2

corn (Zea mays) [6] = assay: as above
Outline: as §2

kochia (Bassia scoparia) [7] = assay: as above
Outline: as §2

[8] = system: oat, wild (wild oat, Avena fatua); assay: as above
Outline: as §2

[9] = system: horseweed (Erigeron canadensis); assay: as above
Outline: as §2

[10] = system: green foxtail (Setaria viridis); assay: as above
Outline: as §2

soybean (Glycine max) [11] = assay: as above
Outline: as §2

[12] = system: ragweed (common ragweed, Ambrosia artemisiifolia); assay: as above
Outline: as §2

[13] = system: barnyardgrass (Echinochloa crus-galli); assay: as above
Outline: as §2

[14] = system: blackgrass (Alopecurus myosuroides); assay: as above
Outline: as §2

[15] = system: wheat (Triticum aestivum); assay: as above
Outline: as §2

[16] = system: ryegrass, Italian (italian ryegrass, Lolium multiflorum); assay: Test A preemergence soil spray, visual injury rating 0-100; conditions: 10 days
Outline: as §2

[17] = system: palmer (palmer amaranth, palmer pigweed, Amaranthus palmeri); assay: as above; conditions: 10 days
Outline: as §2

corn (Zea mays) [18] = assay: as above; conditions: 10 days
Outline: as §2

kochia (Bassia scoparia) [19] = assay: as above; conditions: 10 days
Outline: as §2

[20] = system: oat, wild (wild oat, Avena fatua); assay: as above; conditions: 10 days
Outline: as §2

[21] = system: green foxtail (Setaria viridis); assay: as above; conditions: 10 days
Outline: as §2

soybean (Glycine max) [22] = assay: as above; conditions: 10 days
Outline: as §2

[23] = system: ragweed (common ragweed, Ambrosia artemisiifolia); assay: as above; conditions: 10 days
Outline: as §2

[24] = system: barnyardgrass (Echinochloa crus-galli); assay: as above; conditions: 10 days
Outline: as §2

[25] = system: blackgrass (Alopecurus myosuroides); assay: as above; conditions: 10 days
Outline: as §2

[26] = system: wheat (Triticum aestivum); assay: as above; conditions: 10 days
Outline: as §2

[27] = 62 g ai/ha, postemergence, 10 days, 0 = no effect, 100 = complete control
[28] = Postemergence, 16 g ai/ha, greenhouse 10 days, 0 no effect, 100 complete control
[29] = 62 g ai/ha, 0 = no effect, 100 = complete control

SMILES: CCOC(=O)C1=CCC(NC(=O)C2(C)CN(c3cc(Cl)cc(Cl)c3)C(=O)O2)C1 (centres unmarked) [Compound 114]
- Plant response rating, Barnyardgrass (0 to 100 scale, 0 is no effect and 100 is complete control) [1]: 90
- Plant response rating, Ducksalad (0 to 100 scale, 0 is no effect and 100 is complete control) [2]: 80
- Plant response rating, Sedge, Umbrella (0 to 100 scale, 0 is no effect and 100 is complete control) [3]: 98
- Plant response rating, Rice (0 to 100 scale, 0 is no effect and 100 is complete control) (rice (Oryza sativa)): 55
- Ryegrass, Italian plant response rating (0-100) [4, 27]: 80
- Ryegrass, Italian plant response rating (0 to 100 scale) [4, 28]: 50
- Pigweed, Palmer plant response rating (0-100) [5, 27]: 90
- Pigweed, Palmer plant response rating (0 to 100 scale) [5, 28]: 90
- Corn plant response rating (0-100) (corn (Zea mays) [6]; [27]): 100
- Corn plant response rating (0 to 100 scale) (corn (Zea mays) [6]; [28]): 100
- Kochia plant response rating (0-100) (kochia (Bassia scoparia) [7]; [27]): 90
- Kochia plant response rating (0 to 100 scale) (kochia (Bassia scoparia) [7]; [28]): 80
- Oat, Wild plant response rating (0-100) [8, 27]: 40
- Oat, Wild plant response rating (0 to 100 scale) [8, 28]: 30
- Horseweed plant response rating (0-100) [9, 27]: 70
- Horseweed plant response rating (0 to 100 scale) [9, 28]: 20
- Foxtail, Green plant response rating (0-100) [10, 27]: 90
- Foxtail, Green plant response rating (0 to 100 scale) [10, 28]: 80
- Soybean plant response rating (0-100) (soybean (Glycine max) [11]; [27]): 70
- Soybean plant response rating (0 to 100 scale) (soybean (Glycine max) [11]; [28]): 50
- Ragweed plant response rating (0-100) [12, 27]: 50
- Ragweed plant response rating (0 to 100 scale) [12, 28]: 10
- Barnyardgrass plant response rating (0-100) [13, 27]: 100
- Barnyardgrass plant response rating (0 to 100 scale) [13, 28]: 100
- Blackgrass plant response rating (0-100) [14, 27]: 80
- Blackgrass plant response rating (0 to 100 scale) [14, 28]: 50
- Wheat plant response rating (0-100) [15, 27]: 90
- Wheat plant response rating (0 to 100 scale) [15, 28]: 80
- Ryegrass, Italian plant response rating ([16]; 16 g ai/ha, 0 to 100 scale): 0
- Ryegrass, Italian plant response rating (0-100) [16, 29]: 80
- Pigweed, Palmer plant response rating ([17]; 16 g ai/ha, 0 to 100 scale): 40
- Pigweed, Palmer plant response rating (0-100) [17, 29]: 90
- Corn plant response rating (corn (Zea mays) [18]; 16 g ai/ha, 0 to 100 scale): 0
- Corn plant response rating (0-100) (corn (Zea mays) [18]; [29]): 30
- Kochia plant response rating (kochia (Bassia scoparia) [19]; 16 g ai/ha, 0 to 100 scale): 0
- Kochia plant response rating (0-100) (kochia (Bassia scoparia) [19]; [29]): 0
- Oat, Wild plant response rating ([20]; 16 g ai/ha, 0 to 100 scale): 0
- Oat, Wild plant response rating (0-100) [20, 29]: 20
- Foxtail, Green plant response rating ([21]; 16 g ai/ha, 0 to 100 scale): 0
- Foxtail, Green plant response rating (0-100) [21, 29]: 90
- Soybean plant response rating (soybean (Glycine max) [22]; 16 g ai/ha, 0 to 100 scale): 0
- Soybean plant response rating (0-100) (soybean (Glycine max) [22]; [29]): 10
- Ragweed plant response rating ([23]; 16 g ai/ha, 0 to 100 scale): 0
- Ragweed plant response rating (0-100) [23, 29]: 0
- Barnyardgrass plant response rating ([24]; 16 g ai/ha, 0 to 100 scale): 0
- Barnyardgrass plant response rating (0-100) [24, 29]: 90
- Blackgrass plant response rating ([25]; 16 g ai/ha, 0 to 100 scale): 0
- Blackgrass plant response rating (0-100) [25, 29]: 20
- Wheat plant response rating ([26]; 16 g ai/ha, 0 to 100 scale): 0
- Wheat plant response rating (0-100) [26, 29]: 40
